In patent US20060135569A1, “Use of benzisoselenazolone compounds against ischemic myocardial damage” (priority 2002, published 2006):
Marks after values point to notes of the source that are not given here.

Key:
[1] = molecular target: T1, Na^+/Ca^2+ exchanger (Cavia porcellus, UniProt P48766); assay: Na^+/Ca^2+ exchange current (INa—Ca), whole-cell patch clamp, intracellular Na^+ overload cell model; assay type: cell-based, guinea pig
T1 construct: endogenous in cells; host or cells: freshly isolated guinea pig ventricular myocytes
Text: 1. Establishment of Assaying Method for Biphasical Current Detection in Na^+/Ca^2+ Exchange System
Since the reverse mode of Na^+/Ca^2+ exchange process is one of the main mechanisms involving in ischemia/reperfusion insult, it is of great importance to establish cell model represented reverse mode Na^+/Ca^2+ exchange process for the development of drugs against ischemic injury. Therefore, we successfully established cell model of reverse mode Na^+/Ca^2+ exchange system by intracellular Na^+ dialysis technique, and recorded Na^+/Ca^2+ exchange currents by patch clamp experiment.
Internal solution contained certain concentration of NaCl was filled to the microcatheter, and ion exchange process between the cellular and internal solutions was conducted after whole cell currents were recorded by patch clamp. Na^+ contained in the internal solution was dialyzed into the cell; result in the high intracellular Na^+ concentration. After that, the cell was champed at a holding potential of −40 mV, then depolarized to +60 mV and followed by a conversely declining ramp stimuli at a speed of 80 mV·s^−1 and 2 s conditioning pulse, then repolarized to −100 mV with a frequency of 0.05 Hz. Under the stimulation protocol, current from outward to the inward direction was recorded by perfusing modified biphasical Tyrode solution (in which the outward and inward currents can be recorded simultaneously) with the addition of 1 mmol·L^−1 of BaCl2 and 2 mmol·L^−1 of CsCl to block K^+ channels, 1 μmol·L^−1 of verapamil to block L-type Ca^2+ channels, and 20 μmol·L^−1 of ouabain to block Na^+/K^+ ATPase, and 20 mmol·L^−1 of TEA to block potassium channels. The recorded inward currents were presented in a linear manner owing to the blockade of other time-dependent currents. With the increase of intracellular Na^+ level and prolongation of time, the reverse mode of Na^+/Ca^2+ exchange process was activated. […] Under such experimental conditioning, the maximum reverse mode current was recorded 3 min after cell crushed. No significant “run-down” was observed within the record period of 8 minutes. The inward and outward current were inhibited by 5 mmol·L^−1 of Ni^2+ treatment, and the experiment result in two current-voltage curves in the absence or presence of Ni^2+. The Ni^2+ sensitive current, also called electrophysiological Na^+/Ca^2+ exchange current (INa·Ca), was the minus result of two current-voltage curves. The reverse mode potential of INa—Ca was about −20 mV
Male guinea pigs weighting 250˜280 g provided by the Animal Center of the Chinese Academy of Medical Sciences were hammered and sacrificed. The chest was opened and the heart was removed quickly. Fatty tissue and pericardium were removed in a Ca^2+-free solution at 4° C., and heart was sequentially mounted on a Langendorff apparatus. First, the heart was perfused conversely via the aorta for 6 min with Ca^2+-free solution in order to wash out residual blood, then the heart expands and the color of it turns to pink. Then the heart was perfused with Ca^2+-free solution containing 0.1 mg/ml of pronase E, 0.5 mg/ml defatted bovine serum albumin (BSA) and 150 μM Ca^2+ for 2˜3 min, until the heart expanded and became soft. The atrium was removed, and the digested heart was minced with scissors, stirred in a beaker at 37° C. for 5˜10 min. The supernatant was diluted with Ca^2+-free solution containing 0.5 mg/ml BSA and 1.8 mM Ca^2+. The supernatant was placed at room temperature (20˜24° C.) for 1 hr and then subjected to the experiment. During the whole perfusion period, pressure was kept at 70 cmH2O and the temperature of solution was kept at 37° C. with continuously gassed with 95% O2 and 5% CO2.
Rod-shaped cells with clear striations and intact membrane were used. […]

[2] = tested on: isolated rat hearts subjected to ischemia-reperfusion (I/R); assay: Isolated heart subjected to ischemia/reperfusion injury (arrhythmia)
Protocol: Based on the pre-electrophysiological cell model screening, we have compared the inhibition ratios of the outward current by reverse-transportation of Na^+/Ca^2+ exchange, and further in vitro tests on isolated rat hearts subjected to ischemia-reperfusion (I/R) were conducted. Prolongation of ventricular arrhythmic, incidence rate of ventricular extrasystole, ventricular tachycardia/ventricular fibrillation (VT/VF) were recorded to evaluate the protective actions of drugs on myocardial injury.
On the basis of above screening results obtained from electrophysiological studies, and the result from comparative study on the research of the inhibitory effect of compounds on reverse mode Na^+/Ca^2+ exchange process, 7 effective compounds were subjected to in vitro study. Among which, IMM-313, IMM-004 and IMM-132 have structures containing chlorine; IMM-127, IMM-128 and IMM-129 have structures containing fluorine; and IMM-065 has a structure containing OH. The experiment performed in the isolated heart subjected to ischemia/reprefusion insult. Prolongation of ventricular arrhythmic, incidence of ventricular extrasystole, ventricular tachycardia/ventricular fibrillation (VT/VF) were recorded in order to evaluate the protective actions of drugs on myocardial injury.

[3] = tested on: arrhythmia caused by ischemia/reperfusion insults in anaesthetic rats; assay: Ischemia/reperfusion arrhythmia in anaesthetic rats, intravenous injection; assay type: in vivo, rat
Text: (1) Protective Effects of the Tested Compounds on Myocardial Insults in Rats after Intravenously Injection
Arrhythmic potency induced by myocardial insults was used to assess the potential protective effect of the compounds.

[4] = tested on: TA97; TA98; TA100; TA102; assay: Ames (mutagenesis) test, overall result in 4 strains; assay type: cell-based; conditions: 0.5, 5, 50 and 500 μg/dish
Protocol: (§1) To assess the mutagenic effects of 5 compounds (IMM-004; IMM-065; IMM-127; IMM-128; IMM-313), the Ames test was performed in 4 strains (TA97; TA98; TA100; TA102). The experiment was conducted with compounds at 4 concentration levels (0.5, 5, 50 and 500 μg/dish). […]

[5] = tested on: TA97; assay: Ames test, strain TA97; assay type: cell-based
Protocol: as §1

[6] = tested on: TA98; assay: Ames test, strain TA98; assay type: cell-based
Protocol: as §1

[7] = tested on: TA100; assay: Ames test, strain TA100; assay type: cell-based
Protocol: as §1

[8] = tested on: TA102; assay: Ames test, strain TA102; assay type: cell-based
Protocol: as §1

[9] = Example 1 table, myocardial cell
[10] = screening of 22 candidate compounds
[11] = 10^−6 M, isolated heart ischemia/reperfusion

SMILES: O=c1c2ccc(Cl)cc2[se]n1-c1ccncc1 [IMM-313, 6-chloro-2-(4-pyridyl)-1,2-benz-isoselenazol-3(2H)-one]
- Inhibitory rate of inward INa—Ca (%) [1, 9]: 28%
- Inhibitory rate of outward INa—Ca (%) [1, 9]: 50%
- Inhibitory rate of inward INa—Ca (%) [1, 10]: 28%
- Inhibitory rate of outward INa—Ca (%) [1, 10]: 50* %
- protective effects on myocardial insults ([2]; 10^−6M, isolated heart): significant protective effects
- AAT: arrhythmic occurrence time, Time [2, 11]: 1.67 ± 0.70 min
- VF (ventricular fibrillation) Incidence rate (%) [2, 11]: 30* %
- VPS (ventricular premature beats) Incidence rate (%) [2, 11]: 20* %
- VT (ventricular tachycardia) Incidence rate (%) [2, 11]: 30%
- incidence and duration of VT, VF, VE / ventricular arrhythmic ([3]; 3 mg/Kg intravenous (femoral vein), rats): no significant effect
- rats with heart rate irreversibly reduced within 5 min (died at last) ([3]; 3 mg/Kg intravenous, before ligation, 7/17 rats): 41.2%
- mutagenic effect (Ames test) [4]: No evidence for a mutagenic effect
- TA97 +S9 ([5]; 0.5 μg/dish): 64.67 ± 8.65
- TA97 −S9 ([5]; 0.5 μg/dish): 47.33 ± 6.13
- TA97 +S9 ([5]; 5 μg/dish): 70.33 ± 4.11
- TA97 −S9 ([5]; 5 μg/dish): 38.33 ± 13.09
- TA97 +S9 ([5]; 50 μg/dish): 60.00 ± 7.12
- TA97 −S9 ([5]; 50 μg/dish): 0
- TA97 +S9 ([5]; 500 μg/dish): 0
- TA97 −S9 ([5]; 500 μg/dish): 33.33 ± 13.59
- TA98 +S9 ([6]; 0.5 μg/dish): 49.33 ± 3.86
- TA98 −S9 ([6]; 0.5 μg/dish): 100.50 ± 3.50
- TA98 +S9 ([6]; 5 μg/dish): 50.33 ± 5.79
- TA98 −S9 ([6]; 5 μg/dish): 86.50 ± 5.50
- TA98 +S9 ([6]; 50 μg/dish): 47.33 ± 1.25
- TA98 −S9 ([6]; 50 μg/dish): 0
- TA98 +S9 ([6]; 500 μg/dish): 0
- TA98 −S9 ([6]; 500 μg/dish): 87.67 ± 5.25
- TA100 +S9 ([7]; 0.5 μg/dish): 99.33 ± 2.49
- TA100 −S9 ([7]; 0.5 μg/dish): 68.67 ± 17.33
- TA100 +S9 ([7]; 5 μg/dish): 111.33 ± 7.71
- TA100 −S9 ([7]; 5 μg/dish): 45.67 ± 6.65
- TA100 +S9 ([7]; 50 μg/dish): 106.00 ± 7.48
- TA100 −S9 ([7]; 50 μg/dish): 0
- TA100 +S9 ([7]; 500 μg/dish): 0
- TA100 −S9 ([7]; 500 μg/dish): 16.5 ± 0.5
- TA102 +S9 ([8]; 0.5 μg/dish): 250.00 ± 10.00
- TA102 −S9 ([8]; 0.5 μg/dish): 215.33 ± 13.91
- TA102 +S9 ([8]; 5 μg/dish): 220.00 ± 28.00
- TA102 −S9 ([8]; 5 μg/dish): 211.33 ± 18.35
- TA102 +S9 ([8]; 50 μg/dish): 265.33 ± 15.43
- TA102 −S9 ([8]; 50 μg/dish): 0
- TA102 +S9 ([8]; 500 μg/dish): 0
- TA102 −S9 ([8]; 500 μg/dish): 177.67 ± 23.33
